Results published in patent US20230083973A1, “SUBSTITUTED CYCLOPROPYL-2,2'-BIP[…], ANALOGUES THEREOF, AND METHODS USING SAME” (priority 2019, published 2023).
Where two headings read alike, the source gives them in different places.

Tested on: HBsAg
Experiment: HBsAg assay: inhibition of HBsAg in HepG2.2.15 cells (chemiluminescence immunoassay of supernatant)
Assay type: cell-based, hepatitis B virus
Conditions: HBsAg in supernatant at day 6 after exposure to compound, 0.5% DMSO
Experimental: Inhibition of HBsAg was determined in HepG2.2.15 cells. Cells were maintained in culture medium containing 10% fetal calf serum, […], Glutamine, penicillin/streptomycin. Cells were seeded in 96-well collagen-coated plate at a density of 30,000 cells/well. Serially diluted compounds were added to cells next day at the final DMSO concentration of 0.5%. Cells were incubated with compounds for 2-3 days, after which medium was removed. Fresh medium containing compounds was added to cells for additional 3-4 days. At day 6 after exposure of compounds, supernatant was collected, the HBsAg immunoassay (microplate-based chemiluminescence immunoassay kits, CLIA, Autobio Diagnosics Co., Zhengzhou, China, Catalog # CL0310-2) was used to determine the level of HBsAg according to manufactory instruction. Dose-response curves were generated and the EC50 value (effective concentrations that achieved 50% inhibitory effect) were determined using XLfit software. In addition, cells were seeded at a density of 5,000 cells/well for determination of cell viability in the presence and absence of compounds by using CellTiter-Glo reagent (Promega).
Table 1 illustrates EC50 values obtained by the HBsAg assay for selected compounds.

[1] = Hepatitis B virus, HepG2.2.15, 144 h, read-out: sAg EC50, HepG2.2.15 cells
[2] = read-out: sAg EC50, HepG2.2.15 cells

| Compound | EC50 [1] [µM] | EC50 [2] [µM] |
| --- | --- | --- |
| COc1cc(C2CC2c2cnc(-c3ncccn3)nc2C)ccc1F (single isomer, unassigned) [Example 17, trans-5-(2-(4-Fluoro-3-methoxyphenyl)cyclopropyl)-4-methyl-2,2′-bipyrimidine] | 0.65 | – |
| COc1cc(F)ccc1C1CC1c1cnc(-c2ncccn2)nc1 (single isomer, unassigned) [Example 8, trans-5-(2-(4-Fluoro-2-methoxyphenyl)cyclopropyl)-2,2′-bipyrimidine] | – | 0.45 |
| COc1cc(C2CC2c2cnc(-c3ncccn3)nc2)cc(N2CCCC2)c1F (single isomer, unassigned) [Example 101, trans-5-(2-(4-Fluoro-3-methoxy-5-(pyrrolidin-1-yl)phenyl)cyclopropyl)-2,2′-bipyrimidine] | – | 0.8 |
| COc1ccc(C2CC2c2cnc(-c3ncccn3)nc2)c(F)c1 (single isomer, unassigned) [Example 3, trans-5-(2-(2-Fluoro-4-methoxyphenyl)cyclopropyl)-2,2′-bipyrimidine] | 0.19 | – |
| COc1c(Cl)ccc(C2CC2c2cnc(-c3ncccn3)nc2)c1C (single isomer, unassigned) [Example 72, trans-5-(2-(4-Chloro-3-methoxy-2-methylphenyl)cyclopropyl)-2,2′-bipyrimidine] | – | 0.089 |
| Fc1ccc([C@@H]2C[C@H]2c2cnc(-c3ncccn3)nc2)c2cccnc12 (relative stereo) [Example 172, trans-5-(2-([2,2′-Bipyrimidin]-5-yl)cyclopropyl)-8-fluoroquinoline] | 0.25 | – |
| CCCc1cc(F)c(OC)cc1C1CC1c1cnc(-c2ncccn2)nc1 (single isomer, unassigned) [Example 38, trans-5-(2-(4-Fluoro-5-methoxy-2-propylphenyl)cyclopropyl)-2,2′-bipyrimidine] | – | 0.15 |
| COc1ccc(C2CC2c2cnc(-c3ncccn3)nc2)cc1F (single isomer, unassigned) [Example 12, trans-5-(2-(3-Fluoro-4-methoxyphenyl)cyclopropyl)-2,2′-bipyrimidine] | 0.11 | – |
| CN1CC[C@H](Nc2cc(C3CC3c3cnc(-c4ncccn4)nc3)cc(F)c2F)C1 (single isomer, unassigned) [Example 228] | – | 15 |
| COc1cc([C@@H]2C[C@H]2c2cnc(-c3ncccn3)nc2)ccc1C(F)(F)F (relative stereo) [Example 153, trans-5-(2-(3-Methoxy-4-(trifluoromethyl)phenyl)cyclopropyl)-2,2′-bipyrimidine] | 0.19 | – |
| COc1cnn(-c2cc(C3CC3c3cnc(-c4ncccn4)nc3)cc(F)c2F)c1 (single isomer, unassigned) [Example 251, trans-5-(2-(3,4-Difluoro-5-(4-methoxy-1H-pyrazol-1-yl)phenyl)cyclopropyl)-2,2′-bipyrimidine] | – | 0.041 |
| Fc1ccc(C2CC2c2cnc(-c3ncccn3)nc2)cc1OCC1CC1 (single isomer, unassigned) [Example 25, trans-5-(2-(3-(Cyclopropylmethoxy)-4-fluorophenyl)cyclopropyl)-2,2′-bipyrimidine] | – | 0.27 |
| COc1cc(C2CC2c2ccc(-c3ncccn3)nn2)ccc1F (single isomer, unassigned) [Example 192, trans-3-(2-(4-Fluoro-3-methoxyphenyl)cyclopropyl)-6-(pyrimidin-2-yl)pyridazine] | – | 49 |
| Fc1ccc(C2CC2c2cnc(-c3ncccn3)nc2)cc1F (single isomer, unassigned) [Example 15, trans-5-(2-(3,4-Difluorophenyl)cyclopropyl)-2,2′-bipyrimidine] | – | 0.076 |
| COCCCn1ncc2c(C3CC3c3cnc(-c4ncccn4)nc3)cc(F)c(F)c21 (single isomer, unassigned) [Example 265, trans-4-(2-([2,2′-Bipyrimidin]-5-yl)cyclopropyl)-6,7-difluoro-1-(3-methoxypropyl)-1H-indazole] | – | 0.061 |
| COc1cc(C2CC2c2cnc(-c3ncccn3)nc2)cc(Cl)c1F (single isomer, unassigned) [Example 149, trans-5-(2-(3-Chloro-4-fluoro-5-methoxyphenyl)cyclopropyl)-2,2′-bipyrimidine] | – | 0.062 |
| O[C@@H]1CCN(c2cc(C3CC3c3cnc(-c4ncccn4)nc3)cc(F)c2F)C1 (single isomer, unassigned) [Example 104] | 0.078 | – |
| COCCCn1cc2c(F)cc([C@@H]3C[C@H]3c3cnc(-c4ncccn4)nc3)cc2n1 (relative stereo) [Example 267, trans-6-(2-([2,2′-Bipyrimidin]-5-yl)cyclopropyl)-4-fluoro-2-(3-methoxypropyl)-2H-indazole] | 0.013 | – |

| Compound | EC50 [1] [µM] | EC50 [2] [µM] |
| --- | --- | --- |
| COc1cc([C@@H]2C[C@H]2c2cnc(-c3cnccn3)nc2)cc(F)c1F (relative stereo) [Example 178, trans-5-(2-(3,4-Difluoro-5-methoxyphenyl)cyclopropyl)-2-(pyrazin-2-yl)pyrimidine] | 0.46 | – |
| O[C@H]1CCN(c2cc(C3CC3c3cnc(-c4ncccn4)nc3)ccc2F)C1 (single isomer, unassigned) [Example 66] | – | 0.23 |
| COCCOc1cc(F)c(Cl)cc1C1CC1c1cnc(-c2ncccn2)nc1 (single isomer, unassigned) [Example 156, trans-5-(2-(5-Chloro-4-fluoro-2-(2-methoxyethoxy)phenyl)cyclopropyl)-2,2′-bipyrimidine] | – | 0.19 |
| COc1cc(C2CC2c2cnc(-c3ncccn3)nc2C(C)C)ccc1F (single isomer, unassigned) [Example 75, trans-5-(2-(4-Fluoro-3-methoxyphenyl)cyclopropyl)-4-isopropyl-2,2′-bipyrimidine] | – | 2 |
| COc1ccc(C2CC2c2cnc(-c3ncccn3)nc2)cc1OC (single isomer, unassigned) [Example 31, trans-5-(2-(3,4-Dimethoxyphenyl)cyclopropyl)-2,2′-bipyrimidine] | 0.33 | – |
| COc1cc(C2CC2c2cnc(-c3ncccn3)nc2)c(F)cc1Cl (single isomer, unassigned) [Example 86, trans-5-(2-(4-Chloro-2-fluoro-5-methoxyphenyl)cyclopropyl)-2,2′-bipyrimidine] | 0.13 | – |
| Fc1ccc(C2CC2c2cnc(-c3ncccn3)nc2)cc1N1CCCC1 (single isomer, unassigned) [Example 20, trans-5-(2-(4-Fluoro-3-(pyrrolidin-1-yl)phenyl)cyclopropyl)-2,2′-bipyrimidine] | – | 0.023 |
| COc1cc(C2CC2c2cnc(-c3ncccn3)nc2)cc(C)c1Cl (single isomer, unassigned) [Example 58, trans-5-(2-(4-Chloro-3-methoxy-5-methylphenyl)cyclopropyl)-2,2′-bipyrimidine] | – | 0.29 |
| Fc1cc(C2CC2c2cnc(-c3ncccn3)nc2)cc(-n2ccnc2)c1F (single isomer, unassigned) [Example 182, trans-5-(2-(3,4-Difluoro-5-(1H-imidazol-1-yl)phenyl)cyclopropyl)-2,2′-bipyrimidine] | – | 0.064 |
| COc1cc(C2CC2c2cnc(-c3ncccn3)nc2OC)ccc1F (single isomer, unassigned) [Example 81, trans-5-(2-(4-Fluoro-3-methoxyphenyl)cyclopropyl)-4-methoxy-2,2′-bipyrimidine] | – | 0.23 |
| COc1ccc(C2CN(c3cc([C@@H]4C[C@H]4c4cnc(-c5ncccn5)nc4)cc(F)c3F)C2)cc1OC (relative stereo) [Example 216, trans-5-(2-(3-(3-(3,4-Dimethoxyphenyl)azetidin-1-yl)-4,5-difluorophenyl)cyclopropyl)-2,2′-bipyrimidine] | 0.025 | – |
| COCCCOc1cc(F)c(Cl)cc1C1CC1c1cnc(-c2ncccn2)nc1 (single isomer, unassigned) [Example 155, trans-5-(2-(5-Chloro-4-fluoro-2-(3-methoxypropoxy)phenyl)cyclopropyl)-2,2′-bipyrimidine] | – | 3 |
| COc1cc(F)ccc1[C@@H]1C[C@H]1c1cnc(-c2ncccn2)nc1 (relative stereo) [Example 7, trans-5-(2-(4-Fluoro-2-methoxyphenyl)cyclopropyl)-2,2′-bipyrimidine] | 0.37 | – |
| COc1cc(C2CC2c2cnc(-c3ncccn3)c3ccccc23)ccc1F (single isomer, unassigned) [Example 194, trans-4-(2-(4-Fluoro-3-methoxyphenyl)cyclopropyl)-1-(pyrimidin-2-yl)isoquinoline] | – | 49 |
| CN1CC[C@@H](Nc2cc(C3CC3c3cnc(-c4ncccn4)nc3)cc(F)c2F)C1 (single isomer, unassigned) [Example 231] | – | 0.75 |
| c1cnc(-c2ncc([C@@H]3C[C@H]3c3cccc4ccccc34)cn2)nc1 (relative stereo) [Example 166, trans-5-(2-(Naphthalen-1-yl)cyclopropyl)-2,2′-bipyrimidine] | 0.065 | – |
| Fc1cc([C@@H]2C[C@H]2c2cnc(-c3ncccn3)nc2)cc(N2CC3(COC3)C2)c1F (relative stereo) [Example 209, trans-6-(5-(2-([2,2′-Bipyrimidin]-5-yl)cyclopropyl)-2,3-difluorophenyl)-2-oxa-6-azaspiro[3.3]heptane] | 0.12 | – |
